One assay has as its system Pythium ultimum. Kind of assay: Pythium ultimum / liquid culture (seedling damping off). The class given is cell-based. The conditions noted are these: Globisporangium ultimum, liquid culture in PDB, 24° C., 2-3 days after application, read-out: inhibit fungal infestation (inhibition of growth determined photometrically).
In another assay the test system is Phytophthora infestans. The assay can be described thus: whole plant or invertebrate. It is filed as in vivo. The conditions noted are these: in Solanum lycopersicum, foliar, read-out: inhibit fungal infestation (percent disease control compared to untreated).
In a further assay the test system is Plasmopara viticola. The assay can be described thus: Plasmopara viticola / grape / leaf disc preventative. The conditions noted are these: foliar, grape vine leaf disks, inoculated 1 day after application, assessed 6-8 days after application, read-out: inhibit fungal infestation (percent disease control compared to untreated). It is filed as in vivo.
Assay [1] deals with Blumeria qraminis f. sp. tritici (Erysiphe qraminis f. sp. tritici). Kind of assay: Blumeria graminis f. sp. tritici / wheat / leaf disc preventative (powdery mildew on wheat). It is filed as in vivo. As to conditions: foliar, wheat leaf segments cv. Kanzler, inoculated 1 day after application, assessed 6-8 days after application, read-out: inhibit fungal infestation (percent disease control compared to untreated).

This note sets out measurements from US20140045890A1, “NOVEL COMPOUNDS” (SYNGENTA PARTICIPATIONS AG, priority 2011, published 2014).

On to `C#Cc1cnc2ccc(OC(SC)C(=O)NC(C)(C)c3ccncc3)cc2c1` (stereo not shown) [Compound 35], for which the inhibition at 200 ppm with Pythium ultimum is no less than 80%.
As for `C#Cc1cnc2c(C)cc(OC(SC)C(=O)NC(C)(C)c3ccncc3)cc2c1` (stereo not shown) [Compound 36], the inhibition at 200 ppm in the assay with Phytophthora infestans, in the assay on Pythium ultimum and with Plasmopara viticola was no less than 80% in each case.
In the case of `C#Cc1cnc2ccc(OC(SC)C(=O)NC3(c4ccccn4)CC3)cc2c1` (stereo not shown) [Compound 37], the inhibition at 200 ppm (in assay [1]; with Phytophthora infestans; in the assay with Pythium ultimum) was no less than 80% throughout.
With `C#Cc1cnc2c(C)cc(OC(SC)C(=O)NC3(c4ccccn4)CC3)cc2c1` (stereo not shown) [Compound 38], the inhibition at 200 ppm in the assay with Pythium ultimum and in the assay on Plasmopara viticola was no less than 80% in each case.
With `C#Cc1cnc2ccc(OC(SC)C(=O)NC(C)(C)c3cc(C(=O)OC)on3)cc2c1` (stereo not shown) [Compound 40], the inhibition at 200 ppm in the assay on Phytophthora infestans and in the assay on Pythium ultimum was no less than 80% throughout.
As for `C#Cc1cnc2c(C)cc(OC(SC)C(=O)NC(C)(C)c3cc(C(=O)OC)on3)cc2c1` (stereo not shown) [Compound 41], the inhibition at 200 ppm with Pythium ultimum and in the assay on Plasmopara viticola was no less than 80% in each case.
As for `C#Cc1cnc2c(C)cc(OC(SC)C(=O)NC(C)(C)c3cc(CO)on3)cc2c1` (stereo not shown) [Compound 43], the inhibition at 200 ppm in the assay on Phytophthora infestans, with Pythium ultimum and in the assay on Plasmopara viticola was no less than 80% in each case.
For the compound `C#Cc1cnc2ccc(OC(SC)C(=O)NC(C)(C)c3nocc3I)cc2c1` (stereo not shown) [Compound 49], the inhibition at 200 ppm in the assay on Phytophthora infestans, in the assay with Pythium ultimum and in the assay with Plasmopara viticola was no less than 80% in each case.
For the compound `C#Cc1cnc2ccc(OC(SC)C(=O)NC(C)(C)c3noc4ccccc34)cc2c1` (stereo not shown) [Compound 50], the inhibition at 200 ppm in the assay with Pythium ultimum and in the assay on Plasmopara viticola was no less than 80% throughout.
Consider `C#Cc1cnc2ccc(OC(SC)C(=O)NC(C)(C)c3cc(COC)on3)cc2c1` (stereo not shown) [Compound 52], for which the inhibition at 200 ppm (in assay [1]; in the assay on Phytophthora infestans; in the assay on Pythium ultimum; in the assay with Plasmopara viticola) was no less than 80% each time.
In the case of `C#Cc1cnc2ccc(OC(SC)C(=O)NC(C)(C)c3noc(C)c3Cl)cc2c1` (stereo not shown) [Compound 54], the inhibition at 200 ppm (in assay [1]; in the assay with Phytophthora infestans; in the assay on Pythium ultimum; in the assay on Plasmopara viticola) was no less than 80% in each case.
Turning to `C#Cc1cnc2ccc(OC(OC)C(=O)NC(C)(C)c3ccccn3)cc2c1` (stereo not shown) [Compound 55], the inhibition at 200 ppm (in assay [1]; with Phytophthora infestans; in the assay on Pythium ultimum) was no less than 80% throughout.
For `C#Cc1cnc2c(C)cc(OC(SC)C(=O)NC(C)(C)c3cccnc3)cc2c1` (stereo not shown) [Compound 56], the inhibition at 200 ppm in the assay on Pythium ultimum and in the assay with Plasmopara viticola was no less than 80% in each case.
As to `C#Cc1cnc2ccc(OC(SC)C(=O)NC(C)(C)c3cccnc3)cc2c1` (stereo not shown) [Compound 57], the inhibition at 200 ppm in the assay on Pythium ultimum is no less than 80%.
Regarding `C#Cc1cnc2ccc(OC(SC)C(=O)NC(C)(C)c3csc([Si](C)(C)C)n3)cc2c1` (stereo not shown) [Compound 58], the inhibition at 200 ppm with Pythium ultimum is no less than 80%.
For the compound `C#Cc1cnc2ccc(OC(SC)C(=O)NC(C)(C)c3nscc3C(=O)OC)cc2c1` (stereo not shown) [Compound 61], the inhibition at 200 ppm with Pythium ultimum and with Plasmopara viticola was no less than 80% each time.
`C#Cc1cnc2ccc(OC(SC)C(=O)NC(C)(C)c3cc(C(=O)OC)sn3)cc2c1` (stereo not shown) [Compound 62, methyl 3-[1-[[2-[(3-ethynyl-6-quinolyl)oxy]-2-methylsulfanyl-acetyl]amino]-1-methyl-ethyl]isothiazole-5-carboxylate]: the inhibition at 200 ppm (in assay [1]; in the assay with Pythium ultimum; in the assay with Plasmopara viticola) was no less than 80% throughout.
`C#Cc1cnc2ccc(OC(SC)C(=O)NC(C)(C)c3nc(C)c(C)s3)cc2c1` (stereo not shown) [Compound 63]: the inhibition at 200 ppm (in assay [1]; in the assay with Pythium ultimum) was no less than 80% in each case.
Consider `C#Cc1cnc2ccc(OC(SC)C(=O)NC(C)(C)c3nocc3Br)cc2c1` (stereo not shown) [Compound 64], for which the inhibition at 200 ppm (in assay [1]; in the assay with Phytophthora infestans; in the assay on Pythium ultimum; in the assay on Plasmopara viticola) was no less than 80% in each case.
Consider `CSc1cnc2ccc(OC(SC)C(=O)NC(C)(C)c3nocc3Br)cc2c1` (stereo not shown) [Compound 65], for which the inhibition at 200 ppm in the assay on Pythium ultimum is no less than 80%.
Turning to `CSc1cnc2ccc(OC(SC)C(=O)NC(C)(C)c3cc(C)on3)cc2c1` (stereo not shown) [Compound 66], the inhibition at 200 ppm in the assay with Pythium ultimum and in the assay with Plasmopara viticola was no less than 80% throughout.
Regarding `C#Cc1cnc2c(C)cc(OC(SC)C(=O)NC(C)(C)c3cc(C)on3)cc2c1` (stereo not shown) [Compound 67], the inhibition at 200 ppm (in assay [1]; in the assay on Phytophthora infestans; with Pythium ultimum; with Plasmopara viticola) was no less than 80% throughout.
Regarding `C#Cc1cnc2c(F)cc(OC(SC)C(=O)NC(C)(C)c3cc(C)on3)cc2c1` (stereo not shown) [Compound 69], the inhibition at 200 ppm (in assay [1]; in the assay on Phytophthora infestans; in the assay on Pythium ultimum; in the assay with Plasmopara viticola) was no less than 80% in each case.
`C#Cc1cnc2cc(F)c(OC(SC)C(=O)NC(C)(C)c3cc(C)on3)cc2c1` (stereo not shown) [Compound 70]: the inhibition at 200 ppm in the assay with Phytophthora infestans was no less than 80%.
`CSc1cnc2ccc(OC(SC)C(=O)NC(C)(C)c3cc(Cl)on3)cc2c1` (stereo not shown) [Compound 71]: the inhibition at 200 ppm in the assay on Pythium ultimum and in the assay with Plasmopara viticola was no less than 80% in each case.
Take `C#Cc1cnc2c(C)cc(OC(SC)C(=O)NC(C)(C)c3cc(Cl)on3)cc2c1` (stereo not shown) [Compound 72]: the inhibition at 200 ppm in the assay with Phytophthora infestans, with Pythium ultimum and in the assay on Plasmopara viticola was no less than 80% throughout.
Turning to `CSc1cnc2ccc(OC(SC)C(=O)NC(C)(C)c3nocc3C)cc2c1` (stereo not shown) [Compound 74], the inhibition at 200 ppm with Pythium ultimum was no less than 80%.
In the case of `C#Cc1cnc2c(Cl)cc(OC(SC)C(=O)NC(C)(C)c3nocc3C)cc2c1` (stereo not shown) [Compound 76], the inhibition at 200 ppm in the assay with Phytophthora infestans, in the assay on Pythium ultimum and in the assay with Plasmopara viticola was no less than 80% throughout.
`C#Cc1cnc2c(F)cc(OC(SC)C(=O)NC(C)(C)c3nocc3C)cc2c1` (stereo not shown) [Compound 77]: the inhibition at 200 ppm (in assay [1]; with Phytophthora infestans; with Pythium ultimum; in the assay on Plasmopara viticola) was no less than 80% each time.
`C#Cc1cnc2ccc(OC(SC)C(=O)NCc3ncc(C)s3)cc2c1` (stereo not shown) [Compound 79]: the inhibition at 200 ppm (in assay [1]; in the assay on Pythium ultimum) was no less than 80% in each case.
Take `C#Cc1cnc2ccc(OC(SC)C(=O)NC(C)(C)c3cc(CC)on3)cc2c1` (stereo not shown) [Compound 82]: the inhibition at 200 ppm (in assay [1]; in the assay on Phytophthora infestans; with Pythium ultimum; with Plasmopara viticola) was no less than 80% each time.
For `C#Cc1cnc2ccc(OC(SC)C(=O)NC(C)(C)c3cc(C(F)(F)F)on3)cc2c1` (stereo not shown) [Compound 83], the inhibition at 200 ppm (in assay [1]; with Phytophthora infestans; in the assay with Pythium ultimum; in the assay with Plasmopara viticola) was no less than 80% throughout.
On to `C#Cc1cnc2c(F)cc(OC(SC)C(=O)NC(C)(C)c3cc(C(F)(F)F)on3)cc2c1` (stereo not shown) [Compound 91], for which the inhibition at 200 ppm with Phytophthora infestans and with Plasmopara viticola was no less than 80% in each case.
On to `C#Cc1cnc2c(Cl)cc(OC(SC)C(=O)NC(C)(C)c3cc(C(F)(F)F)on3)cc2c1` (stereo not shown) [Compound 99], for which, in the assay on Plasmopara viticola, the inhibition at 200 ppm is no less than 80%.
Turning to `COCc1cc(C(C)(C)NC(=O)C(Oc2ccc3ncc(SC)cc3c2)SC)no1` (stereo not shown) [Compound 100], the inhibition at 200 ppm in the assay with Phytophthora infestans, in the assay with Pythium ultimum and in the assay with Plasmopara viticola was no less than 80% throughout.
With `CCc1cc(C(C)(C)NC(=O)C(Oc2ccc3ncc(SC)cc3c2)SC)no1` (stereo not shown) [Compound 103], the inhibition at 200 ppm with Pythium ultimum and with Plasmopara viticola was no less than 80% each time.
On to `CSc1cnc2ccc(OC(SC)C(=O)NC(C)(C)c3cc(C(F)(F)F)on3)cc2c1` (stereo not shown) [Compound 104], for which the inhibition at 200 ppm in the assay on Pythium ultimum and with Plasmopara viticola was no less than 80% in each case.
Consider `CSC(Oc1ccc2ncc(I)cc2c1)C(=O)NC(C)(C)c1cc(C(F)(F)F)on1` (stereo not shown) [Compound 108], for which the inhibition at 200 ppm in the assay on Pythium ultimum and with Plasmopara viticola was no less than 80% each time.
For the compound `CSc1cnc2ccc(OC(SC)C(=O)NC(C)(C)c3cccc(C)n3)cc2c1` (stereo not shown) [Compound 114], the inhibition at 200 ppm in the assay with Pythium ultimum is no less than 80%.
Turning to `C#Cc1cnc2c(F)cc(OC(SC)C(=O)NCc3nccs3)cc2c1` (stereo not shown) [Compound 115], the inhibition at 200 ppm (in assay [1]; in the assay with Pythium ultimum) was no less than 80% each time.
Regarding `CSc1cnc2ccc(OC(SC)C(=O)NCc3nccs3)cc2c1` (stereo not shown) [Compound 118], the inhibition at 200 ppm in the assay on Pythium ultimum is no less than 80%.
For `C#Cc1cnc2c(F)cc(OC(SC)C(=O)NCc3nc(C)cs3)cc2c1` (stereo not shown) [Compound 119], the inhibition at 200 ppm (in assay [1]; in the assay with Pythium ultimum; in the assay on Plasmopara viticola) was no less than 80% in each case.
For the compound `C#Cc1cnc2c(Cl)cc(OC(SC)C(=O)NCc3nc(C)cs3)cc2c1` (stereo not shown) [Compound 120], the inhibition at 200 ppm (in assay [1]; with Pythium ultimum; in the assay with Plasmopara viticola) was no less than 80% throughout.
`CSc1cnc2ccc(OC(SC)C(=O)NCc3nc(C)cs3)cc2c1` (stereo not shown) [Compound 121]: the inhibition at 200 ppm with Pythium ultimum is no less than 80%.
For the compound `C#Cc1cnc2c(F)cc(OC(SC)C(=O)NCc3ncc(C)s3)cc2c1` (stereo not shown) [Compound 122], the inhibition at 200 ppm (in assay [1]; in the assay with Pythium ultimum) was no less than 80% in each case.
For the compound `CSC(Oc1cc(C)c2ncc(I)cc2c1)C(=O)NCc1cccnc1` (stereo not shown) [Compound 125], in the assay with Pythium ultimum, the inhibition at 200 ppm was no less than 80%.
Take `CSC(Oc1cc(C)c2ncc(I)cc2c1)C(=O)NCc1ccc(Cl)nc1` (stereo not shown) [Compound 127]: in assay [1], the inhibition at 200 ppm is no less than 80%.
